Assay results as given in ChEMBL document CHEMBL4411335, “Identification and Optimization of Novel Small c-Abl Kinase Activators Using Fragment and HTS Methodologies” (J Med Chem, 2019).
In brackets after ≈: the same amount, converted by molar mass.

How the values were obtained:
[1] = biological target: T1, Tyrosine-protein kinase ABL1 (Homo sapiens, UniProt P00519); test: Activation of full length human 6His-tagged c-Abl expressed in baculovirus expression system using abltide as substrate after 2 hrs by IMAP assay; details: read-out: pIC50 (converted)
[2] = biological target: Tyrosine-protein kinase ABL1 (Homo sapiens, UniProt P00519, D382N); test: Displacement of Myr-GQQPGKVLGDQRRPSL(K-TAMRA)G-amide from N-terminal-truncated human c-ABL D382N mutant (46 to 534 residues) after 30 mins by fluorescence polarization binding assay
[3] = biological target: T1, Tyrosine-protein kinase ABL1; test: Induction of human c-ABL phosphorylation at Y245/Y412 residues in bacmam-induced HEK-MSR2 cell lysates by in-cell Western blot analysis; format: subcellular, Lysate
[4] = Kinetic solubility of the compound at pH 7.4 after 1 hr by CLND-based assay; format: physicochemical; details: buffer, read-out: Kinetic_solubility
[5] = Permeability of the compound at […] after 3 hrs by artificial membrane permeability assay; format: ADME; details: PAMPA; read-out: permeability
[6] = Intrinsic clearance in CD1 mouse liver microsomes at 0.5 uM measured up 60 mins in presence of NADPH by LC-MS/MS analysis; format: ADME, Microsome; details: 1 h
[7] = Terminal plasma concentration in CD1 mouse at 100 mg/kg, ip after 40 mins; format: ADME, organism-based; details: read-out: Cp(T)
[8] = Terminal plasma concentration in CD1 mouse at 100 mg/kg, ip after 180 mins; format: ADME, organism-based; details: read-out: Cp(T)
[9] = system: Mus musculus; test: In vivo activation of c-ABL in CD1 mouse assessed as fold increase in phosphorylated CRKL level at 100 mg/kg, ip after 40 mins relative to total CRK-L protein level; format: functional
[10] = system: Mus musculus; test: In vivo activation of c-ABL in CD1 mouse assessed as fold increase in phosphorylated CRKL level at 100 mg/kg, ip after 180 mins relative to total CRK-L protein level; format: functional
[11] = Toxicity in CD1 mouse assessed as induction of hemolysis at 100 mg/kg, BID for 10 days; format: organism-based; details: in vivo, 240 h

T1 sequence (P00519 whole entry, the tested form may be a part): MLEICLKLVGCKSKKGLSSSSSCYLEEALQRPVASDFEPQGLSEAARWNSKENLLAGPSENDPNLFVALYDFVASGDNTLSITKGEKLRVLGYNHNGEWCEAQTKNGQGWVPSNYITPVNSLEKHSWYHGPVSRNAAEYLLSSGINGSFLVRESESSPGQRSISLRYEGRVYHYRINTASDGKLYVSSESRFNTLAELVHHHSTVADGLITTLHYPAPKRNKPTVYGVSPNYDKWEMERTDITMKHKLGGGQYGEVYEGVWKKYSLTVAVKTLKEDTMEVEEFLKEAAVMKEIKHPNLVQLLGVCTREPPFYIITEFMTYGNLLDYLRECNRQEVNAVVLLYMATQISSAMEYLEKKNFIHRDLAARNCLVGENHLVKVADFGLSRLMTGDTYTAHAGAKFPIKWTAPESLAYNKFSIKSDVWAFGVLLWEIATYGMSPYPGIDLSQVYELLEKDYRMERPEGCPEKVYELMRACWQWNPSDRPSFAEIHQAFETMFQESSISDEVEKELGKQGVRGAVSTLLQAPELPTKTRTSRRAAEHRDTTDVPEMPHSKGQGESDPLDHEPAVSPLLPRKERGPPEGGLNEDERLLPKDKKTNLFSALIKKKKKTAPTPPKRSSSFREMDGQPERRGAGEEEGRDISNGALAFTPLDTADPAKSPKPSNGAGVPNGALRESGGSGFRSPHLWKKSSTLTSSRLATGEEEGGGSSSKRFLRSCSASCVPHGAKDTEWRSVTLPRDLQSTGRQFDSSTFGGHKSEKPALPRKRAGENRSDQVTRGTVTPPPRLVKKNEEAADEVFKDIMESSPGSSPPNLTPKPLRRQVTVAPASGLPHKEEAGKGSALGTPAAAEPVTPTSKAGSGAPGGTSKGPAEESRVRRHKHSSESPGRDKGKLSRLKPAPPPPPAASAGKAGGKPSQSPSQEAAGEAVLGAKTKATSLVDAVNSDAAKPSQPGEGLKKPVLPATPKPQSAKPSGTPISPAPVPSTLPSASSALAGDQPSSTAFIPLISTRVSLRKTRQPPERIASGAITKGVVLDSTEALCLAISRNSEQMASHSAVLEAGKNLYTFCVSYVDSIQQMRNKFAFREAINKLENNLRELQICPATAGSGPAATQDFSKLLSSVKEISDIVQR
Chain of Tyrosine-protein kinase ABL1 (Homo sapiens, UniProt P00519, D382N) (P00519 as listed by the source D382N): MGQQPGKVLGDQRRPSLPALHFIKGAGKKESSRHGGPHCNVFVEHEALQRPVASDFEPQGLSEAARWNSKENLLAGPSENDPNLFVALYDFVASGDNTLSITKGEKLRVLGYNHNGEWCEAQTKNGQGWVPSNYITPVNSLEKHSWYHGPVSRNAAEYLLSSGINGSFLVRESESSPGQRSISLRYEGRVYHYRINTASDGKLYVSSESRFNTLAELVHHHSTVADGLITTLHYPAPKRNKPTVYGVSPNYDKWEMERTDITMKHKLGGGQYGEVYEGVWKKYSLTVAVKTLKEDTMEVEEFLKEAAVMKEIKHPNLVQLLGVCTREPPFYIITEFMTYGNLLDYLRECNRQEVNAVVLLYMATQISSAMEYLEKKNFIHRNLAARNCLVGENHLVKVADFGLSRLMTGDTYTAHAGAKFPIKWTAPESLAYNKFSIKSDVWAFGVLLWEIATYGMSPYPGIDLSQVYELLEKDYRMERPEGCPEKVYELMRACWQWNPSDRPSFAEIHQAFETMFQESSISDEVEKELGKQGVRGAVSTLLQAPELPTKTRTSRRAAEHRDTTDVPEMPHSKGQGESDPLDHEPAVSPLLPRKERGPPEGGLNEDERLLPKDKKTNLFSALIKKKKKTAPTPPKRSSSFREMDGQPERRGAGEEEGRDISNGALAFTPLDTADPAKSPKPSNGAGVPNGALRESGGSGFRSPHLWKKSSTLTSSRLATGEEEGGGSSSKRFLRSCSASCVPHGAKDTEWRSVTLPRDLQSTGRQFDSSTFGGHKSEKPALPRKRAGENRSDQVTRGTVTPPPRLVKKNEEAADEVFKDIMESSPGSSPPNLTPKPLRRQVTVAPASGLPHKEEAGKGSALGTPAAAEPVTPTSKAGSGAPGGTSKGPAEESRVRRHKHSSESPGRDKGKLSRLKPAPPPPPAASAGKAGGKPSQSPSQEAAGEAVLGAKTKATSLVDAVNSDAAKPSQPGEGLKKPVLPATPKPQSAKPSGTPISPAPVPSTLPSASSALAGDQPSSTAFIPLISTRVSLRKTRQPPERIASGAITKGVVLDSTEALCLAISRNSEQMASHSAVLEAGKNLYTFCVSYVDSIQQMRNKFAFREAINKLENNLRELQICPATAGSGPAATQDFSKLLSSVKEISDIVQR

Row | Structure (SMILES) | EC50 for c-Abl activation [1] [nM] | IC50 [2] [nM] | EC50 [3] [nM] | solubility kinetic at 1 h [4] [µM] | Papp at 3 h [5] [×10⁻⁶ cm/s] | CLint [6] [µL/min/mg] | concentration at 40 min [7] [ng/mL] | concentration at 3 h [8] [ng/mL] | fold change (FC) [9] | fold change (FC) [10] | Activity [11]
1 | O=C(Nc1nc(-c2ccc(Cl)c(Cl)c2)cs1)c1cccnc1 | 398 | 200 | > 50100 | 20 (≈ 7 µg/mL) | 37 | – | – | – | – | – | –
2 | CC(=O)Nc1nc(-c2cc(Cl)c(Cl)s2)cs1 | > 100000 | 6310 | > 50100 | 1 (≈ 0.293 µg/mL) | 28 | – | – | – | – | – | –
3 | N#CCC(=O)Nc1cccc(-c2ccc(Cl)c(Cl)c2)n1 | 12600 | 1580 | > 50100 | 1 (≈ 0.306 µg/mL) | 21.5 | – | – | – | – | – | –
4 | CC(=O)Nc1nc(-c2ccc(Cl)c(F)c2)cs1 | 3160 | 794 | 50100 | 5 (≈ 1.35 µg/mL) | 35 | – | – | – | – | – | –
5 | CC(=O)Nc1nc(-c2ccc(F)c(Cl)c2)cs1 | 39800 | 2510 | > 50100 | 10 (≈ 2.71 µg/mL) | 9.4 | – | – | – | – | – | –
6 | N#CCC(=O)Nc1nc(-c2ccc(Cl)c(Cl)c2)ns1 | 3160 | 1000 | 10000 | 370 (≈ 116 µg/mL) | 23 | – | – | – | – | – | –
7 | O=C(Nc1nc(-c2ccc(Cl)c(Cl)c2)cs1)c1cncs1 | 501 | 200 | > 50100 | 2 (≈ 0.713 µg/mL) | 6.1 | – | – | – | – | – | –
8 | N#CCC(=O)Nc1nc(-c2ccc(Cl)c(Cl)c2)c[nH]1 | 1580 | 631 | 3160 | 14 (≈ 4.13 µg/mL) | 31 | – | – | – | – | – | –
9 | N#CCC(=O)Nc1cc(-c2ccc(Cl)c(Cl)c2)cs1 | 3160 | 3980 | 20000 | 12 (≈ 3.73 µg/mL) | 19 | – | – | – | – | – | –

Continued, in another order:

Row | EC50 for c-Abl activation [1] [nM] | IC50 [2] [nM] | EC50 [3] [nM] | solubility kinetic at 1 h [4] [µM] | Papp at 3 h [5] [×10⁻⁶ cm/s] | CLint [6] [µL/min/mg] | concentration at 40 min [7] [ng/mL] | concentration at 3 h [8] [ng/mL] | Structure (SMILES) | fold change (FC) [9] | fold change (FC) [10] | Activity [11]
10 | 1260 | 501 | 5010 | 57 (≈ 17.8 µg/mL) | 14.2 | – | – | – | N#CCC(=O)Nc1nc(-c2ccc(Cl)c(Cl)c2)cs1 | – | – | –
11 | 15800 | 1000 | 39800 | 13 (≈ 4.37 µg/mL) | 32 | – | – | – | O=C(NC1=NN(c2ccc(Cl)c(Cl)c2)CC1)c1ccncn1 | – | – | –
12 | 251 | 501 | 501 | 23 (≈ 7.73 µg/mL) | 36 | – | – | – | O=C(NC1=NN(c2ccc(Cl)c(Cl)c2)CC1)c1ccnnc1 | – | – | –
13 | 316 | 398 | 794 | 31 (≈ 8.44 µg/mL) | 36 | – | – | – | CC(=O)NC1=NN(c2ccc(Cl)c(Cl)c2)CC1 | – | – | –
14 | 126 | 200 | 1580 | 36 (≈ 12.7 µg/mL) | 28 | – | – | – | O=C(NC1=NN(c2ccc(Cl)c(Cl)c2)CC1)c1ccncc1F | – | – | –
15 | 251 | 398 | 1000 | 202 (≈ 60 µg/mL) | 32 | – | – | – | N#CCC(=O)NC1=NN(c2ccc(Cl)c(Cl)c2)CC1 | – | – | –
16 | 20 | 316 | 100 | 9 (≈ 3.15 µg/mL) | 42 | – | – | – | C[C@H]1CN(c2ccc(Cl)c(Cl)c2)N=C1NC(=O)c1cncnc1 | – | – | –
17 | 398 | 501 | 2510 | 416 (≈ 148 µg/mL) | 25 | – | – | – | O=C1CCCC(C(=O)NC2=NN(c3ccc(Cl)c(Cl)c3)CC2)N1 (stereo unspecified) | – | – | –
18 | 251 | 501 | 631 | 8 (≈ 2.69 µg/mL) | 35 | – | – | – | O=C(NC1=NN(c2ccc(Cl)c(Cl)c2)CC1)c1cncnc1 | – | – | –
19 | 100 | 158 | 3160 | 167 (≈ 63.3 µg/mL) | 33.5 | – | – | – | O=C(NC1=NN(c2ccc(Cl)c(Cl)c2)CC1CCO)c1ccncc1 (racemic) | – | – | –
20 | 1580 | 1260 | 7940 | 58 (≈ 19.9 µg/mL) | 34 | – | – | – | CC(=O)N[C@@H](C)C(=O)NC1=NN(c2ccc(Cl)c(Cl)c2)CC1 | – | – | –
21 | 251 | 316 | 794 | 39 (≈ 12.1 µg/mL) | 35.5 | < 10 | 15600 | 17600 | N#CCCC(=O)NC1=NN(c2ccc(Cl)c(Cl)c2)CC1 | 19 | 35 | Toxic
22 | 2000 | 2000 | > 50100 | 11 (≈ 3.69 µg/mL) | 35 | – | – | – | O=C(NC1=NN(c2ccc(Cl)c(Cl)c2)CC1)c1ccccn1 | – | – | –
23 | 501 | 398 | 10000 | 125 (≈ 35.8 µg/mL) | 42 | – | – | – | CC(=O)NC1=NN(c2ccc(Cl)c(Cl)c2)[C@@H](C)C1 | – | – | –
